Data from PMC9775153, “Portability of a Small-Molecule Binding Site between Disordered Proteins” (Biomolecules, 2022).

Tests used:
[1] = Imide pKa determination by UV/Vis; format: physicochemical; details: 1xPBS at various pH values; UV/Vis absorbance at 327 nm, 10 µM 34RH in 1xPBS; read-out: pKa of the imide group of the rhodanine heterocycle
Experimental: The imide pKa of 34RH was determined using UV/Vis by measuring the absorbance of 10 µM of 34RH in 1xPBS at various pH values using an Agilent 8453 UV/Vis spectrophotometer (Figure S2). The absorbance at 327 nm for each pH value was fit to a curve using the Henderson-Hasselbalch (shown in Equations (1) and (2)), where c is the pKa, x is the pH, a is the signal for the fully protonated acid, and b is the signal for the fully ionized base. (1) pKa−pH=log acid/base (2) y=a+b∗10^c−x/1+10^c−x

[2] = molecular target: T1, MaxRH-Y115F/Y123F (Homo sapiens, UniProt P61244, K77E/M74V/Q72L/R75Q/R76A/Y115F/Y123F/Y73S); assay: Circular dichroism with and without 34RH; details: 1 µM MaxRH-Y115F/Y123F, 50 µM 34RH
T1 construct: 6xHis tag + TEV site (N, cleaved yes); made in house; host or cells: E. coli BL21(DE3) pLysS
Experimental: (§1) Samples containing Myc353–437, Myc402–412 peptide, MaxRH, Max isoforms, or mutants in the absence and presence of excess concentrations of 34RH were prepared in 1xCD buffer (50 mM KF, 4.3 mM NaH2PO4, 1.4 mM KH2PO4, 5% ethanol). The pH of the buffer was adjusted to either 6 or 7.4 depending on the experiment conducted. The compound was delivered from a 1 mM ethanol stock solution. Samples were incubated for 1 hr before measurement. The far UV-spectra of the proteins and peptide were recorded in a quartz cuvette with a path length of 0.1 cm using a Jasco J720 spectropolarimeter. The samples were scanned from 270 to 195 nm with an increment of 1 nm, constant bandwidth of 10 nm, and a scanning speed of 1 nm per minute. After subtracting the buffer signal, the raw data in millidegrees was converted to mean residue ellipticity (MRE).

[3] = molecular target: T2, P22 Max (Homo sapiens, UniProt P61244); assay: Circular dichroism with and without 34RH; details: 1 µM P22 Max, 50 µM 34RH, pH 7.4
T2 construct: 6xHis tag + TEV site (N, cleaved yes); made in house; host or cells: E. coli BL21(DE3) pLysS
Experimental: as §1

[4] = molecular target: T3, P21 Max (Homo sapiens, UniProt P61244); assay: Circular dichroism with and without 34RH; details: 4 µM P21 Max, 50 µM 34RH, pH 7.4
T3 construct: 6xHis tag + TEV site (N, cleaved yes); made in house; host or cells: E. coli BL21(DE3) pLysS
Experimental: as §1

[5] = molecular target: T4, Myc353–437 (Homo sapiens, UniProt P01106); assay: Circular dichroism with and without 34RH; details: 2.5 µM Myc353–437, 50 µM 34RH
T4 construct: 6xHis tag + TEV site (N, cleaved yes); made in house; host or cells: E. coli BL21(DE3) pLysS
Experimental: as §1

[6] = molecular target: T5, MaxRH (Homo sapiens, UniProt P61244, K77E/M74V/Q72L/R75Q/R76A/Y73S); assay: Circular dichroism with and without 34RH; details: 1 µM MaxRH, 50 µM 34RH
T5 construct: 6xHis tag + TEV site (N, cleaved yes); made in house; host or cells: E. coli BL21(DE3) pLysS
Experimental: as §1

[7] = molecular target: T4, Myc353–437; assay: Equimolar tyrosine fluorescence quenching titration; details: equimolar Myc353–437 and 34RH, 1x PBS, 25 °C, pH 7.4; 1:1 binding model
Experimental: 5 x 1 05 y = m 1 * x/ ( m 2 + x)
Wavel ength (nm ) [34Rh] µM
Fig S5. Equimolar Myc353-437 and 34RH interaction monitored via tyrosine fluorescence quenching. (A) 50 µM Myc353-437 in the presence (filled black squares) and absence (open black squares) equimolar 34RH in 1x PBS at 25 ℃, pH 7.4. (B) Equilibrium quenching of […]
µM. Error bars represent the standard error of three independent trials. Representative fluorescence signals were inner filter corrected to account for any fluorescence suppression due the absorbance of protein and 34RH [46]. The quenching data was fitted to a binding model shown below described in Dobrev et al.
Fraction Quenched = Q!"# × $
Here, Qmax is the fraction quenched for the formation of the complete complex between Myc353-437 and 34RH. [C]tot is the total concentration of Myc353-437 or 34RH and KD the dissociation constant.

[8] = Dynamic light scattering (DLS) of 34RH; format: physicochemical; details: for DLS correlation function (nano-sized particles): 1xPBS, 5% DMSO, pH 7.4
Experimental: The small molecule (Z)-4-((4-oxo-2-thioxothiazolidin-5-ylidene)methyl)benzoic acid (hereafter referred to as 34RH) was previously synthesized according to established procedures, and the structure was confirmed by ^1H and ^13C NMR (Figure S6) using a 400 MHz spectrometer. The dry compound was stored at 4 °C. Stock solutions (1 mM) of 34RH were made using either dimethyl sulfoxide (DMSO) or ethanol and stored at −20 °C. Fluorescence and dynamic light scattering (DLS) experiments were performed using DMSO, while circular dichroism (CD) was conducted using ethanol to avoid the high absorbance of DMSO at short wavelengths. DLS measurements were performed on 34RH using an LS Spectrophotometer (LS Instruments) at 25 °C (Figure S3). The dispersant viscosity was set for water. Samples were analyzed in 1xPBS (pH 7.4) and 5% total DMSO. The compound was serially diluted two-fold from 100 μM to a final concentration of 6.25 μM. Samples were placed into 5 mm cylindrical glass cuvettes (LS Instruments) and measured using a 600 nm laser at a 90° angle for 20 s. The data were analyzed using LS Spectrophotometer software provided by the manufacturer.

[9] = molecular target: T4, Myc353–437; assay: Tyrosine fluorescence quenching titration, excess 34RH; details: 1 µM Myc353–437, excess 34RH, 1xPBS, 25 °C, pH 7.4; Langmuir binding isotherm; read-out: dissociation constant (KD)
Experimental: (§2) The lyophilized protein (or peptide) was reconstituted in ultrapure water and incubated to room temperature for at least 1 hr. The protein or peptide was then sterile filtered using a pre-wet 0.2 μm polyethylene sulfone (PES) filter (VWR), and the concentration was determined by the absorbance at 274 nm using the extinction coefficient per tyrosine of ε274 = 1470 M^−1cm^−1. The final stock concentrations ranged from 50 to 100 μM.
For excess 34RH tyrosine fluorescence quenching experiments, samples were prepared with the following buffer components: sterile filtered water, 1xPBS (137 mM NaCl, 2.7 mM KCl, 4.3 mM Na2HPO4, 1.4 mM KH2PO4), and 5% total DMSO. […] All samples for fluorescence measurements maintained a final 5% DMSO concentration.
The samples were incubated for at least 15 min before fluorescence was measured. […] The fluorescence data were background corrected using buffer (for samples with only protein) or small molecule (for samples containing protein and 34RH) (Figure S4). The absorbance due to 34RH and protein at the excitation and emission wavelengths can suppress the observed fluorescence intensity to give rise to the inner filter effect. To account for this suppression, we corrected the fluorescence signals using Equation (3). This correction accounted for the fluorescence suppression due to the absorbance of both 34RH and the protein [47]. […]

[10] = molecular target: T1, MaxRH-Y115F/Y123F; assay: Tyrosine fluorescence quenching titration; format: binding; details: 1 µM MaxRH-Y115F/Y123F
Experimental: as §2
(§3) For excess 34RH tyrosine fluorescence quenching experiments, samples were prepared with the following buffer components: sterile filtered water, 1xPBS (137 mM NaCl, 2.7 mM KCl, 4.3 mM Na2HPO4, 1.4 mM KH2PO4), and 5% total DMSO. The pH of the buffer was adjusted to 6 or 7.4 depending on the experiment performed. Three separate samples were prepared in 1xPBS and 5% total DMSO: one containing 50 μM 34RH alone, one containing 1 μM of protein and 50 μM 34RH, and one containing 1 μM protein alone. For the 34RH containing samples, the compound was delivered from a 1 mM DMSO stock. These samples were then serially diluted two-fold from 50 μM 34RH to 1.56 μM 34RH. All samples for fluorescence measurements maintained a final 5% DMSO concentration.
(§4) The samples were incubated for at least 15 min before fluorescence was measured. The samples were excited at 274 nm, and the emission spectra were obtained from 285 to 340 nm using 5 nm excitation and 5 nm emission slits using a Horiba Fluoromax 4 fluorometer. The fluorescence data were background corrected using buffer (for samples with only protein) or small molecule (for samples containing protein and 34RH) (Figure S4). The absorbance due to 34RH and protein at the excitation and emission wavelengths can suppress the observed fluorescence intensity to give rise to the inner filter effect. To account for this suppression, we corrected the fluorescence signals using Equation (3). This correction accounted for the fluorescence suppression due to the absorbance of both 34RH and the protein [47]. (3) Fcorr=Fobs∗ 10^Aex+ Aem/2
(§5) Here, the corrected fluorescence is Fcorr, the background-subtracted observed fluorescence is Fobs, and Aex and Aem are the total absorbance at the excitation and emission wavelengths, respectively. The amount of protein fluorescence quenched by 34RH at a particular concentration was calculated using Fcorr at λ = 304 nm (Equation (4)). (4) Fraction Quenched=1−Fcorr304nm of Protein +34RH/ Fcorr304nm of Protein only
(§6) The quenching data were fit to a Langmuir binding isotherm using Equation (5), from which the dissociation constant (KD) was obtained. Here, Qmax describes the maximum fraction quenched, [L]T is the total 34RH concentration, and [P]T is the total protein concentration. The total concentration of the protein was 1 µM for all fluoresce experiments conducted at a constant protein concentration. (5) Fraction Quenched=Qmax∗([L]T+P]T+ KD−(L]T+P]T+ KD)^2−4 ∗ L]T ∗ P]T/2∗[L]T

[11] = molecular target: T2, P22 Max; assay: Tyrosine fluorescence quenching titration; format: binding; details: 1 µM P22 Max, pH 6 (monomeric)
Experimental: as §2, §3, §4, §5, §6

T4 sequence (P01106 368-452): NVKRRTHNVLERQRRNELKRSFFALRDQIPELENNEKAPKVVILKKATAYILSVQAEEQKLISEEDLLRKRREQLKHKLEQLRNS
T2 sequence (P61244 whole entry): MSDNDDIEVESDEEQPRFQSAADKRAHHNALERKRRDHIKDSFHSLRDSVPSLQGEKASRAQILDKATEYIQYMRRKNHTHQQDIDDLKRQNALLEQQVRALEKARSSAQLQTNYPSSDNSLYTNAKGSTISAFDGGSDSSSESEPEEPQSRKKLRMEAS
T5 sequence (P61244 whole entry Q72L/Y73S/M74V/R75Q/R76A/K77E): as the sequence (P61244 whole entry) above, with Q72L, Y73S, M74V, R75Q, R76A, K77E counted along it
T1 sequence (P61244 whole entry Q72L/Y73S/M74V/R75Q/R76A/K77E/Y115F/Y123F): as the sequence (P61244 whole entry) above, with Q72L, Y73S, M74V, R75Q, R76A, K77E, Y115F, Y123F counted along it
T3 sequence (P61244 1-151 isoform P61244-2): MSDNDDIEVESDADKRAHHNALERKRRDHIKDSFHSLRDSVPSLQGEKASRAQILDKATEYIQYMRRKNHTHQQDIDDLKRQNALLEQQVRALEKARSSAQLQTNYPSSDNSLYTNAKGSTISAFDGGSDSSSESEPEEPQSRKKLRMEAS

- pKa [1]: 5.3 ± 0.3
- effect on conformation (CD) [2]: remains disordered
- effect on CD spectrum [3]: does not alter the CD
- effect on CD spectrum [4]: no indication of perturbation
- effect on conformation (CD) ([6]; pH 6): remaining disordered
- effect on conformation (CD) ([6]; pH 7.4): did not change the conformation
- Kd [7]: 5.9 ± 0.8 µM
- DLS correlation function (nano-sized particles) ([8]; 100 µM): a correlation was observed
- DLS correlation function (nano-sized particles) ([8]; concentrations below 50 µM): no correlation function
- solubility based on dynamic light scattering ([8]; neutral pH): good solubility
- Kd [9]: 3.9 ± 1.3 µM
- Kd [10]: 14.9 ± 1.9 µM
- titratable tyrosine fluorescence quenching (binding) [11]: no titratable quenching
Compound: O=C1NC(=S)S/C1=C\c1ccc(C(=O)O)cc1 [34RH, (Z)-4-((4-oxo-2-thioxothiazolidin-5-ylidene)methyl)benzoic acid]
- effect on average conformation (CD) [5]: did not substantially alter the average conformation
